Drawing on ChEMBL document CHEMBL1154795, “Aptamers as a model for functional evaluation of LNA and 2'-amino LNA” (Bioorg Med Chem Lett, 2009), this text covers Kd for 4 molecules.

This test is described as follows: Binding affinity to avidin by surface plasmon resonance assay. (In general: In SPR one partner is held on a chip, and binding of the other changes the refractive index at the surface.)
`COP(=O)(O)O[C@H]1[C@@H](O)[C@H](n2cnc3c(=O)[nH]c(N)nc32)O[C@@H]1COP(=O)(O)O[C@H]1[C@@H](O)[C@H](n2cnc3c(=O)[nH]c(N)nc32)O[C@@H]1COP(=O)(O)O[C@H]1[C@@H](O)[C@H](n2cc(C)c(=O)[nH]c2=O)O[C@@H]1COP(=O)(O)O[C@H]1[C@H]2NC[C@]1(COP(=O)(O)O[C@H]1[C@@H](O)[C@H](n3cnc4c(=O)[nH]c(N)nc43)O[C@@H]1COP(=O)(O)O[C@H]1[C@@H](O)[C@H](n3cnc4c(=O)[nH]c(N)nc43)O[C@@H]1COP(=O)(O)O[C@H]1[C@@H](O)[C@H](n3cnc4c(=O)[nH]c(N)nc43)O[C@@H]1COP(=O)(O)O[C@H]1[C@@H](O)[C@H](n3cnc4c(=O)[nH]c(N)nc43)O[C@@H]1COP(=O)(O)O[C@H]1[C@@H](O)[C@H](n3cc(C)c(=O)[nH]c3=O)O[C@@H]1COP(=O)(O)O[C@H]1[C@@H](O)[C@H](n3ccc(N)nc3=O)O[C@@H]1COP(=O)(O)O[C@H]1[C@@H](O)[C@H](n3ccc(N)nc3=O)O[C@@H]1COP(=O)(O)O[C@H]1[C@@H](O)[C@H](n3cnc4c(N)ncnc43)O[C@@H]1COP(=O)(O)O[C@H]1[C@@H](O)[C@H](n3cnc4c(=O)[nH]c(N)nc43)O[C@@H]1COP(=O)(O)O[C@H]1[C@@H](O)[C@H](n3cnc4c(N)ncnc43)O[C@@H]1COP(=O)(O)O[C@H]1[C@@H](O)[C@H](n3cc(C)c(=O)[nH]c3=O)O[C@@H]1COP(=O)(O)O[C@H]1[C@@H](O)[C@H](n3cnc4c(N)ncnc43)O[C@@H]1COP(=O)(O)O[C@H]1[C@@H](O)[C@H](n3cnc4c(N)ncnc43)O[C@@H]1COP(=O)(O)O[C@H]1[C@@H](O)[C@H](n3cc(C)c(=O)[nH]c3=O)O[C@@H]1COP(=O)(O)O[C@H]1[C@@H](O)[C@H](n3ccc(N)nc3=O)O[C@@H]1COP(=O)(O)O[C@H]1[C@H]3OC[C@]1(COP(=O)(O)O[C@H]1[C@@H](O)[C@H](n4cnc5c(=O)[nH]c(N)nc54)O[C@@H]1CO)O[C@H]3n1cnc3c(=O)[nH]c(N)nc31)O[C@H]2n1cc(C)c(=O)[nH]c1=O` displayed a Kd of 4.2 nM.

On to `Cc1cn([C@@H]2O[C@H](COP(=O)(O)O[C@H]3[C@@H](O)[C@H](n4ccc(N)nc4=O)O[C@@H]3COP(=O)(O)O[C@H]3[C@H]4OC[C@]3(COP(=O)(O)O[C@H]3[C@@H](O)[C@H](n5cnc6c(=O)[nH]c(N)nc65)O[C@@H]3CO)O[C@H]4n3cnc4c(=O)[nH]c(N)nc43)[C@@H](OP(=O)(O)OC[C@H]3O[C@@H](n4cnc5c(N)ncnc54)[C@H](O)[C@@H]3OP(=O)(O)OC[C@H]3O[C@@H](n4cnc5c(N)ncnc54)[C@H](O)[C@@H]3OP(=O)(O)OC[C@H]3O[C@@H](n4cc(C)c(=O)[nH]c4=O)[C@H](O)[C@@H]3OP(=O)(O)OC[C@H]3O[C@@H](n4cnc5c(N)ncnc54)[C@H](O)[C@@H]3OP(=O)(O)OC[C@H]3O[C@@H](n4cnc5c(=O)[nH]c(N)nc54)[C@H](O)[C@@H]3OP(=O)(O)OC[C@H]3O[C@@H](n4cnc5c(N)ncnc54)[C@H](O)[C@@H]3OP(=O)(O)OC[C@H]3O[C@@H](n4ccc(N)nc4=O)[C@H](O)[C@@H]3OP(=O)(O)OC[C@H]3O[C@@H](n4ccc(N)nc4=O)[C@H](O)[C@@H]3OP(=O)(O)OC[C@H]3O[C@@H](n4cc(C)c(=O)[nH]c4=O)[C@H](O)[C@@H]3OP(=O)(O)OC[C@H]3O[C@@H](n4cnc5c(=O)[nH]c(N)nc54)[C@H](O)[C@@H]3OP(=O)(O)OC[C@H]3O[C@@H](n4cnc5c(=O)[nH]c(N)nc54)[C@H](O)[C@@H]3OP(=O)(O)OC[C@H]3O[C@@H](n4cnc5c(=O)[nH]c(N)nc54)[C@H](O)[C@@H]3OP(=O)(O)OC[C@H]3O[C@@H](n4cnc5c(=O)[nH]c(N)nc54)[C@H](O)[C@@H]3OP(=O)(O)OC[C@H]3O[C@@H](n4cc(C)c(=O)[nH]c4=O)[C@H](O)[C@@H]3OP(=O)(O)OC[C@@]34CN[C@@H]([C@H](n5cc(C)c(=O)[nH]c5=O)O3)[C@@H]4OP(=O)(O)OC[C@H]3O[C@@H](n4cnc5c(=O)[nH]c(N)nc54)[C@H](O)[C@@H]3OP(=O)(O)OC[C@H]3O[C@@H](n4cnc5c(=O)[nH]c(N)nc54)[C@H](O)[C@@H]3OP(=O)(O)O)[C@H]2O)c(=O)[nH]c1=O`, for which binding was characterised by a dissociation constant (Kd) of 4.97 nM.

Take `Cc1cn([C@@H]2O[C@H](COP(=O)(O)O[C@H]3[C@@H](O)[C@H](n4ccc(N)nc4=O)O[C@@H]3COP(=O)(O)O[C@H]3[C@@H](O)[C@H](n4cnc5c(=O)[nH]c(N)nc54)O[C@@H]3COP(=O)(O)O[C@H]3[C@@H](O)[C@H](n4cnc5c(=O)[nH]c(N)nc54)O[C@@H]3CO)[C@@H](OP(=O)(O)OC[C@H]3O[C@@H](n4cnc5c(N)ncnc54)[C@H](O)[C@@H]3OP(=O)(O)OC[C@H]3O[C@@H](n4cnc5c(N)ncnc54)[C@H](O)[C@@H]3OP(=O)(O)OC[C@H]3O[C@@H](n4cc(C)c(=O)[nH]c4=O)[C@H](O)[C@@H]3OP(=O)(O)OC[C@H]3O[C@@H](n4cnc5c(N)ncnc54)[C@H](O)[C@@H]3OP(=O)(O)OC[C@H]3O[C@@H](n4cnc5c(=O)[nH]c(N)nc54)[C@H](O)[C@@H]3OP(=O)(O)OC[C@H]3O[C@@H](n4cnc5c(N)ncnc54)[C@H](O)[C@@H]3OP(=O)(O)OC[C@H]3O[C@@H](n4ccc(N)nc4=O)[C@H](O)[C@@H]3OP(=O)(O)OC[C@H]3O[C@@H](n4ccc(N)nc4=O)[C@H](O)[C@@H]3OP(=O)(O)OC[C@H]3O[C@@H](n4cc(C)c(=O)[nH]c4=O)[C@H](O)[C@@H]3OP(=O)(O)OC[C@H]3O[C@@H](n4cnc5c(=O)[nH]c(N)nc54)[C@H](O)[C@@H]3OP(=O)(O)OC[C@H]3O[C@@H](n4cnc5c(=O)[nH]c(N)nc54)[C@H](O)[C@@H]3OP(=O)(O)O)[C@H]2O)c(=O)[nH]c1=O`: the Kd was 13.1 nM.

Take `Cc1cn([C@@H]2O[C@H](COP(=O)(O)O[C@H]3[C@@H](O)[C@H](n4ccc(N)nc4=O)O[C@@H]3COP(=O)(O)O[C@H]3[C@@H](O)[C@H](n4cnc5c(=O)[nH]c(N)nc54)O[C@@H]3COP(=O)(O)O[C@H]3[C@@H](O)[C@H](n4cnc5c(=O)[nH]c(N)nc54)O[C@@H]3CO)[C@@H](OP(=O)(O)OC[C@H]3O[C@@H](n4cnc5c(N)ncnc54)[C@H](O)[C@@H]3OP(=O)(O)OC[C@H]3O[C@@H](n4cnc5c(N)ncnc54)[C@H](O)[C@@H]3OP(=O)(O)OC[C@H]3O[C@@H](n4cc(C)c(=O)[nH]c4=O)[C@H](O)[C@@H]3OP(=O)(O)OC[C@H]3O[C@@H](n4cnc5c(N)ncnc54)[C@H](O)[C@@H]3OP(=O)(O)OC[C@H]3O[C@@H](n4cnc5c(=O)[nH]c(N)nc54)[C@H](O)[C@@H]3OP(=O)(O)OC[C@H]3O[C@@H](n4cnc5c(N)ncnc54)[C@H](O)[C@@H]3OP(=O)(O)OC[C@H]3O[C@@H](n4ccc(N)nc4=O)[C@H](O)[C@@H]3OP(=O)(O)OC[C@H]3O[C@@H](n4ccc(N)nc4=O)[C@H](O)[C@@H]3OP(=O)(O)OC[C@H]3O[C@@H](n4cc(C)c(=O)[nH]c4=O)[C@H](O)[C@@H]3OP(=O)(O)OC[C@H]3O[C@@H](n4cnc5c(=O)[nH]c(N)nc54)[C@H](O)[C@@H]3OP(=O)(O)OC[C@H]3O[C@@H](n4cnc5c(=O)[nH]c(N)nc54)[C@H](O)[C@@H]3OP(=O)(O)OC[C@H]3O[C@@H](n4cnc5c(=O)[nH]c(N)nc54)[C@H](O)[C@@H]3OP(=O)(O)OC[C@H]3O[C@@H](n4cnc5c(=O)[nH]c(N)nc54)[C@H](O)[C@@H]3OP(=O)(O)OC[C@H]3O[C@@H](n4cc(C)c(=O)[nH]c4=O)[C@H](O)[C@@H]3OP(=O)(O)OC[C@H]3O[C@@H](n4cc(C)c(=O)[nH]c4=O)[C@H](O)[C@@H]3OP(=O)(O)OC[C@H]3O[C@@H](n4cnc5c(=O)[nH]c(N)nc54)[C@H](O)[C@@H]3OP(=O)(O)OC[C@H]3O[C@@H](n4cnc5c(=O)[nH]c(N)nc54)[C@H](O)[C@@H]3OP(=O)(O)O)[C@H]2O)c(=O)[nH]c1=O`: the Kd came out at 9.78 nM.

The Kd is the equilibrium constant for the complex coming apart.
